Laboratory results from patent publication US20230159510A1, “NOVEL PRMT5 INHIBITORS” (AMGEN INC., priority 2020, published 2023).

Key:
PRMT5/MEP50 [1] = target: T1, PRMT5/MEP50 (Homo sapiens, UniProt O14744); test: MTase-Glo methyl transferase assay, Method B (FL-Histone H2A, 1 µM MTA, 1 h pre-incubation); type: biochemical; set-up: purchased Reaction Biology Corp RD-11-292; conditions: read-out: PRMT5 MTase Glo Ki (nM, Meth. B)
Description: Method B: The PRMT5 inhibitory activity of test compounds was determined using the MTase-Glo™ assay (Promega), which monitors the product (S-adenosyl homocysteine or SAH) of methyltransferase reactions. The PRMT5 MTase-Glo assay was conducted in a 384-well white ProxiPlate (PerkinElmer) in a total volume of 16 µL. The PRMT5 enzymatic reaction (in 8 µL) contained 4 nM PRMT5/MEP50 (Reaction Biology Corp, catalog no.: RD-11-292), 5 µM S-adenosyl methionine (SAM, Promega), 2.5 µM FL-Histone H2A (BPS Bioscience, catalog no.: 52021), 1 µM 5′-methylthioadenosine (MTA, Sigma) and ½ log serially diluted compounds in a reaction buffer of 50 mM Tris (pH 8.0), 50 mM NaCl, 0.01% Tween 20, 0.01% BSA, and 1 mM TCEP. Test compounds were pre-incubated with PRMT5/MEP50, SAM, and MTA for 1 hour before addition of FL-Histone H2A to initiate the PRMT5 reaction. The reaction was allowed to proceed for 20 hours at room temperature and was then terminated by addition of 1 µL of 9X MTase-Glo™ Reagent (Promega). After a 30-minute incubation at room temperature, 8 µL of MTase-Glo™ Detection Solution (Promega) was added and the plate was incubated at room temperature for an additional 30 minutes. The light signal corresponding to the amount of SAH produced by the PRMT5 reaction was subsequently measured using an Envision multimode reader (PerkinElmer). IC50 and KI values were obtained by analyzing dose-response curves using GraphPad Prism®.
Target sequence in this assay (O14744 2-637 limits assumed): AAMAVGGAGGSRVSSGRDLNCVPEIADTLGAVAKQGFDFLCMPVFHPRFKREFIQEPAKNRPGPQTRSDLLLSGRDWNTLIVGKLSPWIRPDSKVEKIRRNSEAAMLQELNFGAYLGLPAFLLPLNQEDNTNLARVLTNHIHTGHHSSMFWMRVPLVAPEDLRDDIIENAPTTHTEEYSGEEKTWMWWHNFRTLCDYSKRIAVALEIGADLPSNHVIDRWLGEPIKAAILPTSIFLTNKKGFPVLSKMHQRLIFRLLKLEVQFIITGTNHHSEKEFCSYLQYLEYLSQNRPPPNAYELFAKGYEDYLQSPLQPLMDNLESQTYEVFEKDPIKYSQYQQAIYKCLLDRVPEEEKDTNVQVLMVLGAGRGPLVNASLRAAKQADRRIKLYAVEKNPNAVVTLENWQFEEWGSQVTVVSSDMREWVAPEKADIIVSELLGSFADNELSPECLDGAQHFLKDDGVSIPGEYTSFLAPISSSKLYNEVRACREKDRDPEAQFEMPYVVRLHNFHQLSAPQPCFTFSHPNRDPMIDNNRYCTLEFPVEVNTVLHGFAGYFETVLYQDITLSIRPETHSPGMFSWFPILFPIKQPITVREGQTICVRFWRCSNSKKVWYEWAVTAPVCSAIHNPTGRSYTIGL
Target sequence in this assay (Q9BQA1 2-342 partner limits assumed): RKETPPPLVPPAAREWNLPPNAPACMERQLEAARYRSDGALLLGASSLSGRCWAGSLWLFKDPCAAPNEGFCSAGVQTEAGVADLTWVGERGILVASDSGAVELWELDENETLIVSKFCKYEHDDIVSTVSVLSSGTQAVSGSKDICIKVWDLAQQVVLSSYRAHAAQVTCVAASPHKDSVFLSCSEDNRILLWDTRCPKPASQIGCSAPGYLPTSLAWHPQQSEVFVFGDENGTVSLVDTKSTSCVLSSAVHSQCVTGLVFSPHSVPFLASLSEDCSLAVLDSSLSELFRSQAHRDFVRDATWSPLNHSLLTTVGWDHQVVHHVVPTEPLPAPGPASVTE

HCT116 MTAP null cells = test: HCT116 proliferation assay, MTAP null cells (CellTiter-Glo, 6 days); type: cell-based; conditions: HCT116-MTAP null, 144 h, read-out: Protif_ HCT116-MTAP null IC50
Procedure, shortened: (§1)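 Compound titrations (top dose 1 or 10 µM, 1:3 dilution, 8 or 9 concentrations) and a DMSO control were applied to cells cultured overnight beforehand in RPMI 1640 with 10% FBS at 37° C, 5% CO2; viability was scored from luminescence.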

PRMT5/MEP50 [2] = target: T1, PRMT5/MEP50; test: MTase-Glo methyl transferase assay, Method A (Histone H4 peptide, 1 µM MTA, 24 h pre-incubation); type: biochemical; set-up: made in house; conditions: read-out: PRMT5 MTase Glo Ki (nM, Meth. A)
Procedure, shortened: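 Luminescent SAH detection (MTase-Glo) after a 2 h room-temperature methylation of 1 µM biotinylated H4 (1-21) peptide by 10 nM PRMT5/MEP50 with 5 µM SAM, in 50 mM Tris pH 8.0.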
Target sequence in this assay (O14744 whole entry): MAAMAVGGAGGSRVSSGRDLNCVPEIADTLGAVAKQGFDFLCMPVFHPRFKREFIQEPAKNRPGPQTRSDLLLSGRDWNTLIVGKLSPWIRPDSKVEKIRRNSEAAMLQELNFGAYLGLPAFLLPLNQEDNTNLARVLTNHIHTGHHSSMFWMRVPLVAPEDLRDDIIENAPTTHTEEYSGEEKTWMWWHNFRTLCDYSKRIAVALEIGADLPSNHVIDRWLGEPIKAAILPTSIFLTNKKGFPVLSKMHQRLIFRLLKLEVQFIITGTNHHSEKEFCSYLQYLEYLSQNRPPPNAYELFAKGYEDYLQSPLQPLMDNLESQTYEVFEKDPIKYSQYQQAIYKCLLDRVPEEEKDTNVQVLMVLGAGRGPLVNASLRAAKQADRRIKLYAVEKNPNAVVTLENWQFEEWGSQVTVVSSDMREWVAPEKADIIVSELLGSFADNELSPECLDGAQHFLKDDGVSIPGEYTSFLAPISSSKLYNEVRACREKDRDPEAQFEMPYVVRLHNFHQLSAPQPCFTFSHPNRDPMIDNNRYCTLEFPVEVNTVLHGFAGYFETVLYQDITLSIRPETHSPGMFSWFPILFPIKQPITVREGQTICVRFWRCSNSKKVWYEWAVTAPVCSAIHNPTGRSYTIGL
Target sequence in this assay (Q9BQA1 whole entry partner): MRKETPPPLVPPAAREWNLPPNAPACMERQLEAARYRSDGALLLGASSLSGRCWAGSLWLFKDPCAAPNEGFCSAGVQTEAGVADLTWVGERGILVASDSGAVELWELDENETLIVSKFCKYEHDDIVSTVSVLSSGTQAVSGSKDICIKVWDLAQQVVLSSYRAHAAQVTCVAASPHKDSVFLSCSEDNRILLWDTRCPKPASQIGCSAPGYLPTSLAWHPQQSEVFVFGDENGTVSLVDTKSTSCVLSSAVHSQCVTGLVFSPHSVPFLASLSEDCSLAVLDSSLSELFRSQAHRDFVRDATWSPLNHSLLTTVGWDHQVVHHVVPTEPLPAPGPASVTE

HCT116 WT cells = test: HCT116 proliferation assay, WT cells (CellTiter-Glo, 6 days); type: cell-based; conditions: Homo sapiens, HCT-116, 144 h, read-out: Prolif_HCT116-WT IC50
Procedure, shortened: as §1

Compound | Ki (PRMT5/MEP50 [1]) [nM] | IC50 (HCT116 MTAP null cells) [nM] | Ki (PRMT5/MEP50 [2]) [nM] | IC50 (HCT116 WT cells) [nM]
Cc1cc2cc(C(=O)N(Cc3ccc(N4CCCC4)cc3)CC(C)C)ccc2nc1N [Example 643, 2-amino-N-isobutyl-3-methyl-N-[(4-pyrrolidin-1-ylphenyl)methyl]quinoline-6-carboxamide] | 39.6 | – | – | –
Cc1cc2cc(C(=O)N(Cc3ccc(C(F)(F)F)cn3)C3CC3(C)C)ccc2nc1N (centres unmarked) [Example 706, 2-amino-N-(2,2-dimethylcyclopropyl)-3-methyl-N-[[5-(trifluoromethyl)-2-pyridyl]methyl] quinoline-6-carboxamide] | 31 | – | – | –
Cc1cc2cc(C(=O)N(Cc3cncnc3)Cc3ccc(C(F)(F)F)cn3)ccc2nc1N [Example 626, 2-amino-3-methyl-N-(pyrimidin-5-ylmethyl)-N-((5-(trifluoromethyl)pyridin-2-yl)methyl)quinoline-6-carboxamide] | 42.7 | – | – | –
Cc1cc2cc(C(=O)N(Cc3ccc(C(F)(F)F)cn3)C3CCCC3C#N)cnc2nc1N (centres unmarked) [Example 700, 7-amino-N-(2-cyanocyclopentyl)-6-methyl-N-[[5-(trifluoromethyl)-2-pyridyl]methyl]-1,8-naphthyridine-3-carboxamide] | 38.1 | – | – | –
Cc1cc2cc(C(=O)N(Cc3ccc(C(F)(F)F)cn3)C(CC(N)=O)C3CCOCC3)ccc2nc1N (centres unmarked) [Example 682, 2-amino-N-(3-amino-3-oxo-1-tetrahydropyran-4-yl-propyl)-3-methyl-N-[[5-(trifluoromethyl)-2-pyridyl]methyl] quinoline-6-carboxamide] | 23 | – | – | –
Cc1cc2cc(C(=O)N(CC#CCO)Cc3ccc(C(F)(F)F)cn3)ccc2nc1N [Example 658, 2-amino-N-(4-hydroxybut-2-ynyl)-3-methyl-N-[[5-(trifluoromethyl)-2-pyridyl]methyl] quinoline-6-carboxamide] | 12.6 | – | – | –
Cc1cc2cc(C(=O)N(Cc3ccc(C(F)(F)F)cn3)C3CC(C#N)C3)ccc2nc1N (centres unmarked) [Example 697, 2-amino-N-(3-cyanocyclobutyl)-3-methyl-N-[[5-(trifluoromethyl)-2-pyridyl]methyl] quinoline-6-carboxamide] | 36.5 | – | – | –
Cc1cc2cc(C(=O)N(Cc3ccc(C(F)(F)F)cn3)C3CCCC3C#N)ncc2nc1N (centres unmarked) [Example 701, 2-amino-N-(2-cyanocyclopentyl)-3-methyl-N-[[5-(trifluoromethyl)-2-pyridyl]methyl]-1,7-naphthyridine-6-carboxamide] | 37.2 | – | – | –
C[C@H](c1ncccn1)N(Cc1ccc(C(F)F)cn1)C(=O)c1ccc2nc(N)c(Cl)cc2c1 [Example 381, 2-amino-3-chloro-N-((5-(difluoromethyl)-2-pyridinyl)methyl)-N-((1R)-1-(2-pyrimidinyl)ethyl)-6-quinolinecarboxamide] | – | 194 | 0.33 | 8970
Cc1cc2cc(C(=O)N(Cc3ccc(C(F)(F)F)cn3)[C@@H]3CCOc4cccnc43)ccc2nc1N (single isomer, unassigned) [Example 456] | – | 39 | 0.3 | 816
Cc1cc2cc(C(=O)N(Cc3ccc(C(F)F)cn3)[C@H](C)c3ncc(F)cn3)ccc2nc1N (single isomer, unassigned) [Example 455] | – | 100 | 0.16 | 2940
CC[C@H](c1ncccn1)N(Cc1ccc(C(F)F)cn1)C(=O)c1ccc2nc(N)c(Br)cc2c1 (single isomer, unassigned) [Example 501] | – | 107 | 0.02 | 5920
Cc1cc2cc(C(=O)N(Cc3ccc(Br)cn3)[C@H](C)c3ncccc3Cl)ccc2nc1N [Example 394, 2-amino-N-((5-bromo-2-pyridinyl)methyl)-N-((1R)-1-(3-chloro-2-pyridinyl)ethyl)-3-methyl-6-quinolinecarboxamide] | – | 384 | 0.12 | > 10000
Cc1cc2cc(C(=O)N(Cc3ccc(C(F)F)nn3)[C@H](C)c3ncccn3)ccc2nc1N [Example 380, 2-amino-N-((6-(difluoromethyl)-3-pyridazinyl)methyl)-3-methyl-N-((1R)-1-(2-pyrimidinyl)ethyl)-6-quinolinecarboxamide] | – | 79 | 0.27 | 1670
Cc1nc([C@@H](C)N(Cc2ccc(C(F)F)cn2)C(=O)c2ccc3nc(N)c(C)cc3c2)no1 (single isomer, unassigned) [Example 534] | – | 154 | 0.33 | 4020
Cc1cc2cc(C(=O)N(Cc3ccc(C(F)(F)F)cn3)C3(c4ncccn4)CC3)ccc2nc1N [Example 430, 2-amino-3-methyl-N-(1-(2-pyrimidinyl)cyclopropyl)-N-((5-(trifluoromethyl)-2-pyridinyl)methyl)-6-quinolinecarboxamide] | – | 506 | 0.42 | > 10000
C[C@H](c1ncccn1)N(Cc1ccc(Br)nn1)C(=O)c1cnc2nc(N)c(Br)cc2c1 [Example 350, 7-amino-6-bromo-N-((6-bromo-3-pyridazinyl)methyl)-N-((1R)-1-(2-pyrimidinyl)ethyl)-1,8-naphthyridine-3-carboxamide] | – | 397 | 0.56 | > 10000
Cc1cc2cc(C(=O)N(Cc3ccc(C(F)(F)F)cn3)Cc3ncn(C)n3)ccc2nc1N [Example 306, 2-amino-3-methyl-N-((1-methyl-1H-1,2,4-triazol-3-yl)methyl)-N-((5-(trifluoromethyl)-2-pyridinyl)methyl)-6-quinolinecarboxamide] | – | 401 | 0.76 | > 10000
Cc1cc2cc(C(=O)N(Cc3ccc(C#N)cn3)[C@@H](c3ncccn3)C3CC3)ccc2nc1N [Example 423, 2-amino-N-((5-cyano-2-pyridinyl)methyl)-N-((R)-cyclopropyl(2-pyrimidinyl)methyl)-3-methyl-6-quinolinecarboxamide] | – | 54 | 0.07 | 1830
CC[C@H](c1ncccn1)N(Cc1ccc(C(F)(F)F)nn1)C(=O)c1ccc2nc(N)c(C)cc2c1 (single isomer, unassigned) [Example 495] | – | 86 | 0.06 | 3170
Cc1cc2cc(C(=O)N(Cc3ccc(C(F)(F)F)nn3)[C@@H]3CCOc4ccc(F)nc43)ccc2nc1N [Example 515, (R)-2-amino-N-(6-fluoro-3,4-dihydro-2H-pyrano[3,2-b]pyridin-4-yl)-3-methyl-N-((6-(trifluoromethyl)pyridazin-3-yl)methyl)quinoline-6-carboxamide] | – | 23 | 0.02 | 480
Cc1cc2cc(C(=O)N(Cc3ccc(C(F)(F)F)cn3)[C@@H](C)c3ncn(C)n3)c(F)cc2nc1N (single isomer, unassigned) [Example 498] | – | 459 | 2.43 | 2030
C[C@H](c1ncccn1)N(Cc1ccc(C(F)(F)F)cn1)C(=O)c1cc2cc(Br)c(N)nc2cn1 [Example 419, 2-amino-3-bromo-N-((1R)-1-(2-pyrimidinyl)ethyl)-N-((5-(trifluoromethyl)-2-pyridinyl)methyl)-1,7-naphthyridine-6-carboxamide] | – | 271 | 0.16 | > 10000
CC[C@H](c1ncccn1)N(Cc1ccc(C#N)cn1)C(=O)c1ccc2nc(N)c(C)cc2c1 (single isomer, unassigned) [Example 494] | – | 194 | 0.66 | 5420
Cc1cc2cc(C(=O)N(Cc3ccc(C(F)(F)F)nn3)[C@@H](c3ncccn3)C3CC3)ccc2nc1N (single isomer, unassigned) [Example 518] | – | 47 | 0.11 | 851
Cc1cc2cc(C(=O)N(Cc3ncc(C#N)cc3C)[C@H](C)c3ncccn3)ccc2nc1N [Example 549, 2-amino-N-((5-cyano-3-methyl-2-pyridinyl)methyl)-3-methyl-N-((1R)-1-(2-pyrimidinyl)ethyl)-6-quinolinecarboxamide] | – | 275 | 0.07 | 5090
Cc1cc2cc(C(=O)N(Cc3ccc(Br)nn3)[C@@H]3CCC[C@H]3O)ccc2nc1N [Example 366, 2-amino-N-((6-bromo-3-pyridazinyl)methyl)-N-((1R,2R)-2-hydroxycyclopentyl)-3-methyl-6-quinolinecarboxamide] | – | 218 | 0.18 | 7010
